{
  "source": "patent US20240041898A9",
  "about": "“NEUROSTEROIDS AND ENANTIOMERS THEREOF FOR THE PREVENTION AND TREATMENT OF NEURODEGENERATIVE CONDITIONS” (priority 2019, published 2024)",
  "key": {"optic nerve axons": {"test_system": "optic nerve axons", "assay": "Rat in vivo OHT model, density of optic nerve axons", "settings": "OHT eyes, intravitreal, 3 weeks after microbead injection; single values", "method": "(§1) Example 7. Rat in vivo OHT model induced by intracameral injection of microbeads—For induction of ocular hypertension (OHT) in vivo, sterile 6 μm polystyrene microbeads were injected into the anterior chamber of the left eye of each animal using a single-step, sclero-corneal tunnel approach with a 35G nanoneedle (FIG. 4A). […] After stabilization of elevated IOP, animals were randomly divided into 3 groups (non-treated OHT, AlloP injection, and ent-AlloP injection). AlloP and ent-AlloP were administered as a one-time intravitreal injection one week following bead injection. Non-treated OHT animals received sterile vehicle intravitreally. As a further control, vehicle was intravitreally injected 7 days after intracameral administration of 10 μl of PBS. Three weeks after bead injections, IOP was 26.7±3.7 mmHg in non-treated OHT eyes compared to 9.9±0.9 mmHg in control eyes.\nExample 9. RGC survival by neurosteroids during IOP elevation—In whole mounted retinas, glaucomatous damage was visible as reduced numbers of cells that were positive for NeuN three weeks after microbead injection in non-treated OHT eyes compared with control eyes (FIG. 4J, 4K). […] In sections of optic nerves stained with 2% toluidine blue, axonal loss was detected 3 weeks after microbead injection in non-treated OHT eyes compared with control eyes (FIG. 4O, 4p). […]"}, "p62": {"test_system": "p62", "assay": "Rat in vivo OHT model, Western blot of p62", "settings": "in vivo OHT eyes, 3 weeks after microbead injection; relative units, control = 1.00; single values", "method": "as §1, with “eyes. […]” for “eyes.”"}},
  "note": "Values joined by “and” are separate entries in the source; they are usually repeats but may differ in a detail not shown here. Identical values can stand only once.",
  "data": [
    {"smiles": "CC(=O)[C@@H]1CC[C@@H]2[C@H]3CC[C@@H]4C[C@@H](O)CC[C@@]4(C)[C@@H]3CC[C@]21C", "note": "[ent-AlloP, ent-allopregnanolone]", "values": [
      {"measurement": "Density of axons in ONs, individual 1-5", "setting": "optic nerve axons", "value": "31 Axons × 10000/square mm and 33 Axons × 10000/square mm and 32 Axons × 10000/square mm and 29 Axons × 10000/square mm and 27 Axons × 10000/square mm"},
      {"measurement": "p62 expression (FIG. 6D), individual experiments 1-4", "setting": "p62", "value": "0.92 and 0.91 and 1.00 and 1.61"}
    ]},
    {"smiles": "CC(=O)[C@H]1CC[C@H]2[C@@H]3CC[C@H]4C[C@H](O)CC[C@]4(C)[C@H]3CC[C@]12C", "note": "[AlloP, allopregnanolone]", "values": [
      {"measurement": "Density of axons in ONs, individual 1-5", "setting": "optic nerve axons", "value": "33 Axons × 10000/square mm (2×) and 27 Axons × 10000/square mm and 32 Axons × 10000/square mm and 29 Axons × 10000/square mm"},
      {"measurement": "p62 expression (FIG. 6D), individual experiments 1-4", "setting": "p62", "value": "1.73 and 1.82 and 2.90 and 2.53"}
    ]}
  ]
}
